Experiments:
[1] = target: T1, Ribosomal protein S6 kinase alpha-5 (Homo sapiens, UniProt O75582); details: Sf9, at 10 µM
Description: Inhibition of His-tagged human MSK1 expressed in Sf9 cells at 10 uM

[2] = target: Tyrosine-protein kinase Lck (Homo sapiens) (UniProt P06239); details: Sf9, at 10 µM
Description: Inhibition of His-tagged human LCK expressed in Sf9 cells at 10 uM

Homo sapiens = organism: Homo sapiens; assay: Inhibition of His-tagged human CAMK2 expressed in Escherichia coli at 10 uM
Oryctolagus cuniculus [3] = organism: Oryctolagus cuniculus; details: Muscle tissue, at 10 µM
Description: Inhibition of MAPKAPK1b from rabbit skeletal muscle at 10 uM

[4] = target: T2, MAP kinase-activated protein kinase 5 (Homo sapiens) (UniProt Q8IW41); details: Sf9, at 10 µM
T2 sequence (whole entry): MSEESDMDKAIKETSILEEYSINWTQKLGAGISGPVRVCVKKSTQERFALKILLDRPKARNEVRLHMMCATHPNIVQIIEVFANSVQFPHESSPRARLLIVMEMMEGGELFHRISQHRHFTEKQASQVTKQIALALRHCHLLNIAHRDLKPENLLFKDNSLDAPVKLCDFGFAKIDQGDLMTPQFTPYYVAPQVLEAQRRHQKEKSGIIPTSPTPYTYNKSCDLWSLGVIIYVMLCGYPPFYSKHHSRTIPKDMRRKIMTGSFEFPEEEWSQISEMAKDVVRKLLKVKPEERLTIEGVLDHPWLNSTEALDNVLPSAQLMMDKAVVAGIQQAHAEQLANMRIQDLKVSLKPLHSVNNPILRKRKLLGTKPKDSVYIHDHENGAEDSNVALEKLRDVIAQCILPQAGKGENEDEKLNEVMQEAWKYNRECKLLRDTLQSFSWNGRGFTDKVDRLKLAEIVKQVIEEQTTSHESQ
Description: Inhibition of His-tagged human PRAK expressed in Sf9 cells at 10 uM

[5] = target: Myosin light chain kinase, smooth muscle (Gallus gallus) (UniProt P11799); assay: Inhibition of chicken SmMLCK expressed in Escherichia coli at 10 uM; details: Ovis aries
[6] = target: Mitogen-activated protein kinase 8 (Homo sapiens) (UniProt P45983); details: at 10 µM
Description: Inhibition of Gst-tagged human JNK1a1 expressed in Escherichia coli at 10 uM

[7] = target: T3, Casein kinase II (Homo sapiens) (UniProt P67870+P68400+P19784); details: Sf9, at 10 µM
Description: Inhibition of His-tagged human CK2 expressed in Sf9 cells at 10 uM

Rattus norvegicus [8] = organism: Rattus norvegicus; details: at 10 µM
Description: Inhibition of rat liver AMPK at 10 uM

[9] = target: Rho-associated protein kinase 2 (Rattus norvegicus) (UniProt Q62868); details: Sf9, at 10 µM
Rho-associated protein kinase 2 (Rattus norvegicus), sequence (Q62868 whole entry, looked up): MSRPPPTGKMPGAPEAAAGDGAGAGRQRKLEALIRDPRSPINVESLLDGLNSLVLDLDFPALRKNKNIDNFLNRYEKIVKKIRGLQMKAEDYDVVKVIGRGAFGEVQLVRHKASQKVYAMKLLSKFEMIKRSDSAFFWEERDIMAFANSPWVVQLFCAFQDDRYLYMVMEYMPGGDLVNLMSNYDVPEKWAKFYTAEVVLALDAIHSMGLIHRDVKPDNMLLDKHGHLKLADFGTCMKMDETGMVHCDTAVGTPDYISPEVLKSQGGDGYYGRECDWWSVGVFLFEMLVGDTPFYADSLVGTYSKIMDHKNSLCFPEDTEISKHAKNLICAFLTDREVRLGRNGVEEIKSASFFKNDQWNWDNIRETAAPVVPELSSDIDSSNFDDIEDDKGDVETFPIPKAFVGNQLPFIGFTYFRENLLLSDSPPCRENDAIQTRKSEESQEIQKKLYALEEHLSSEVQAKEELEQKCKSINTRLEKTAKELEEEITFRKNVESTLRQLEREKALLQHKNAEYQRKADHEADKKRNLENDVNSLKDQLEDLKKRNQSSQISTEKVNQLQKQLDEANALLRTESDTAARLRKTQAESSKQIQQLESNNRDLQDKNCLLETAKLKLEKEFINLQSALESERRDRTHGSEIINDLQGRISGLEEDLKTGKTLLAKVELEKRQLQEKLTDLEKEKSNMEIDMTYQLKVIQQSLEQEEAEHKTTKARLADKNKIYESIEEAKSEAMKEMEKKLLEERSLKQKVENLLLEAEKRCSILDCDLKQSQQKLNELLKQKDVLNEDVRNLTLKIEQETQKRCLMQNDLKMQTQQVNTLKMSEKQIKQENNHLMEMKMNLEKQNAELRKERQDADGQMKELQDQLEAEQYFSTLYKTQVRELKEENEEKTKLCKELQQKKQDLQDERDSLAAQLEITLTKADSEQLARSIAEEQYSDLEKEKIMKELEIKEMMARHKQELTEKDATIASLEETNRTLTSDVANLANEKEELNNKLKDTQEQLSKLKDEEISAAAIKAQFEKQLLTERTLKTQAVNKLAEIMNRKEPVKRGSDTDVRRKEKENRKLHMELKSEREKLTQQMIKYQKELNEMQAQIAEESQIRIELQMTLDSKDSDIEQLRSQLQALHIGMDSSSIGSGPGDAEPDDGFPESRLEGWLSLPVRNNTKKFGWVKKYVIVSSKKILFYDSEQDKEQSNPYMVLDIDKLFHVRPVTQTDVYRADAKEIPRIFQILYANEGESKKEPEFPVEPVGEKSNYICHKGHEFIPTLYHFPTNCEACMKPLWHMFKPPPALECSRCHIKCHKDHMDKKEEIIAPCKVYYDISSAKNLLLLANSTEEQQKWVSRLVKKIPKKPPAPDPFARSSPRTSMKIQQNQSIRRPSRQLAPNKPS
Description: Inhibition of rat ROCK2 expressed in Sf9 cells at 10 uM

[10] = target: 3-phosphoinositide-dependent protein kinase 1 (Homo sapiens) (UniProt O15530); details: Sf21, at 10 µM
[11] = target: T4, Serine/threonine-protein kinase Sgk1 (Homo sapiens) (UniProt O00141); details: Sf9, at 10 µM
T4 sequence (whole entry): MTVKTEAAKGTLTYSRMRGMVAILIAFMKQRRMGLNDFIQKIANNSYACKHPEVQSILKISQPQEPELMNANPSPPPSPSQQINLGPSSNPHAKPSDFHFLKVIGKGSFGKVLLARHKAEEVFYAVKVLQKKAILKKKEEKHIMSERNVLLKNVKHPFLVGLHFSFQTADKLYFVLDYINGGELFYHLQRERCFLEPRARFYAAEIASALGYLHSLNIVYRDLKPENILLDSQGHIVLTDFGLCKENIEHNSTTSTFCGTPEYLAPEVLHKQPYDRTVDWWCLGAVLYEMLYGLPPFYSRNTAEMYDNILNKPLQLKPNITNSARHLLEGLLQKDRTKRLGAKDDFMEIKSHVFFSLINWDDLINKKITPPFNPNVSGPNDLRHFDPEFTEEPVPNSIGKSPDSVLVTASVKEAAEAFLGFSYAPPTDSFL
Description: Inhibition of His-tagged human SGK expressed in Sf9 cells at 10 uM

[12] = target: T5, Ribosomal protein S6 kinase beta-1 (Homo sapiens, UniProt P23443); details: at 10 µM
T5 sequence (P23443 whole entry, looked up): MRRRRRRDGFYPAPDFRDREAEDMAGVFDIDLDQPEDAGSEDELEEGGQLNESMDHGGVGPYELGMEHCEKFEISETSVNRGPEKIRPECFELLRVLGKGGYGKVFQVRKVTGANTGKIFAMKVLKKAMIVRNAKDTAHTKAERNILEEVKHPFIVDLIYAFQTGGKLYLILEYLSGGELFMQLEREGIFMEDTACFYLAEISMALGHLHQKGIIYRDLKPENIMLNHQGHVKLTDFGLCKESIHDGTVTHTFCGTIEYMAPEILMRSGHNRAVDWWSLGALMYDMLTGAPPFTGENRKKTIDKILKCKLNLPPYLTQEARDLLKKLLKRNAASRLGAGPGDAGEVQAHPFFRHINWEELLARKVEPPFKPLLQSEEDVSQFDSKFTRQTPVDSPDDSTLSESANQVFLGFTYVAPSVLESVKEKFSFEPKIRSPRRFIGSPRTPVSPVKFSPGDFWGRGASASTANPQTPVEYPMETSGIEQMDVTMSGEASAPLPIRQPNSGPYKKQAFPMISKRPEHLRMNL
Description: Inhibition of His-tagged human S6K1 expressed in Escherichia coli at 10 uM

[13] = target: Mitogen-activated protein kinase 11 (Homo sapiens) (UniProt Q15759); details: at 10 µM
Mitogen-activated protein kinase 11 (Homo sapiens), sequence (Q15759 whole entry): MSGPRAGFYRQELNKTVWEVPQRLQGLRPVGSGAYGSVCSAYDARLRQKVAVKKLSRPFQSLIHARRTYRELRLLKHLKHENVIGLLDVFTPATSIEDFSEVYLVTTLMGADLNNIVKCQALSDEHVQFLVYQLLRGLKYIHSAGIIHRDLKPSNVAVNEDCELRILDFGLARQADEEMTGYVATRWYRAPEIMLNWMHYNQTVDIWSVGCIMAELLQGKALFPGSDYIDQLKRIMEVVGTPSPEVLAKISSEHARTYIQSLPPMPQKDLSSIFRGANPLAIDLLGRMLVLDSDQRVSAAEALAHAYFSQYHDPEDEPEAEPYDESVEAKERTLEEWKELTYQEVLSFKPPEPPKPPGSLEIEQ
Description: Inhibition of Gst-tagged human SAPK2b/p38--beta-2 expressed in Escherichia coli at 10 uM

[14] = target: T6, MAP kinase-activated protein kinase 2 (Homo sapiens, UniProt P49137); details: at 10 µM
T6 sequence (P49137 whole entry, looked up): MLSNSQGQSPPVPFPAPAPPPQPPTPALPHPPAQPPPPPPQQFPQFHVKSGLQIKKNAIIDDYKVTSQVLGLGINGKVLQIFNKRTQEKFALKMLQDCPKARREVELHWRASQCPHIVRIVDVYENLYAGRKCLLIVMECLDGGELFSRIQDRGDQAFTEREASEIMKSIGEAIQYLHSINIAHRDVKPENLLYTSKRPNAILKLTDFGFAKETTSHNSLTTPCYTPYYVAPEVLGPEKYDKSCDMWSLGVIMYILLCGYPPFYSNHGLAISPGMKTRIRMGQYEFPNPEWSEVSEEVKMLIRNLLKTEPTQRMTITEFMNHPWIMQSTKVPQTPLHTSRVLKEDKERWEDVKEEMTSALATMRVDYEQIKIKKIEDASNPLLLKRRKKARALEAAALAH
Description: Inhibition of Gst-tagged human MAPKAPK2 expressed in Escherichia coli at 10 uM

[15] = target: Mitogen-activated protein kinase 1 (Homo sapiens) (UniProt P28482); details: at 10 µM
Mitogen-activated protein kinase 1 (Homo sapiens), sequence (P28482 whole entry): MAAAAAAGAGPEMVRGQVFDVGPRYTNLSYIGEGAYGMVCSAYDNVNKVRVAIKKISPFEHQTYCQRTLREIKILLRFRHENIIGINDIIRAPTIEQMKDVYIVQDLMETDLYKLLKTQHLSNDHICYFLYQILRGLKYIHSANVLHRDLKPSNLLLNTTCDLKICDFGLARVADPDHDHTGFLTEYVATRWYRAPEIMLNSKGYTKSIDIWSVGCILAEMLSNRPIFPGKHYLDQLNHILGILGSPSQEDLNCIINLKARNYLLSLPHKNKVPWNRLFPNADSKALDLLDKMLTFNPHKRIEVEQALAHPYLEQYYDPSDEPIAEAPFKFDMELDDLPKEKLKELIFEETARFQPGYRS
Description: Inhibition of Gst-tagged human MAPK2/ERK2 expressed in Escherichia coli at 10 uM

[16] = target: RAC-alpha serine/threonine-protein kinase (Homo sapiens) (UniProt P31749); details: Sf9, at 10 µM
RAC-alpha serine/threonine-protein kinase (Homo sapiens), sequence (P31749 whole entry): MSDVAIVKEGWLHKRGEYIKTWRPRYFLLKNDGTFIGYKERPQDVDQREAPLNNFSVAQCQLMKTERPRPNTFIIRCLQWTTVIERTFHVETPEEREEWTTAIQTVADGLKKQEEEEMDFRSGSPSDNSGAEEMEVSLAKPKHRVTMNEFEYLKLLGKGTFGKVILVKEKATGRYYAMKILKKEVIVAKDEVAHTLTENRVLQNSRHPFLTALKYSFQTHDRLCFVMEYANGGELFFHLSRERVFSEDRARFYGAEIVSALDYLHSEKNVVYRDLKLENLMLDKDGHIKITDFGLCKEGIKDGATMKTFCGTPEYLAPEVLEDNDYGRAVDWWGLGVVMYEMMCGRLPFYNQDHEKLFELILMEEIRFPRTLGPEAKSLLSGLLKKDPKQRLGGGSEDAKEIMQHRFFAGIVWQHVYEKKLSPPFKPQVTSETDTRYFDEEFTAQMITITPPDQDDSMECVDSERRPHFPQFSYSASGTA
Description: Inhibition of human PKBalpha expressed in SF9 cells at 10 uM

Oryctolagus cuniculus [17] = organism: Oryctolagus cuniculus; details: at 10 µM
Description: Inhibition of rabbit MKK1 expressed in Escherichia coli at 10 uM

[18] = target: T7, Mitogen-activated protein kinase 13 (Homo sapiens) (UniProt O15264); details: at 10 µM
T7 sequence (whole entry): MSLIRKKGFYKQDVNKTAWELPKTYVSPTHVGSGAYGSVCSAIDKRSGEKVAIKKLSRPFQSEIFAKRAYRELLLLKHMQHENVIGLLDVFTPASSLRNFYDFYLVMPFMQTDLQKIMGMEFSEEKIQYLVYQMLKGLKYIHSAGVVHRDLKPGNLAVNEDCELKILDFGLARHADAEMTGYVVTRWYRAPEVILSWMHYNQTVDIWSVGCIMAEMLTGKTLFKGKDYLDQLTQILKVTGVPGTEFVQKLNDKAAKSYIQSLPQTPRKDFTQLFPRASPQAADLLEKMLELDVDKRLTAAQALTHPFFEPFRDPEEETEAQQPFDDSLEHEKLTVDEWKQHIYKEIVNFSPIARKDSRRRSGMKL
Description: Inhibition of Gst-tagged human SAPK4/p38delta expressed in Escherichia coli at 10 uM

Bos taurus [19] = organism: Bos taurus; details: at 10 µM
Description: Inhibition of bovine heart PKA at 10 uM

[20] = target: T8, Serine/threonine-protein kinase Chk1 (Homo sapiens) (UniProt O14757); details: at 10 µM
T8 sequence (whole entry): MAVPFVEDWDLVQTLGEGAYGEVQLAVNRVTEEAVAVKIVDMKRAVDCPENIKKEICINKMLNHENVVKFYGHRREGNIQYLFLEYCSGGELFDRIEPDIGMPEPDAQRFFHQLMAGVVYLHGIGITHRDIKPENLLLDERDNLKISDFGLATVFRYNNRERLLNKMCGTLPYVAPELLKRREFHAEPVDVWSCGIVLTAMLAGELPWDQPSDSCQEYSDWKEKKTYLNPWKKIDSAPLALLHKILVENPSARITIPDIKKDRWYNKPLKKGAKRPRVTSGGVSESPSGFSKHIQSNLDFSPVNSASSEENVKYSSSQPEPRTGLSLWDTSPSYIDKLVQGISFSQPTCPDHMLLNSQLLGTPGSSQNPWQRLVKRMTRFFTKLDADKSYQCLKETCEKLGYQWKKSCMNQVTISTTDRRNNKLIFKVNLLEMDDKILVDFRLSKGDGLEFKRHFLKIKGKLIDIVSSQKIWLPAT
Description: Inhibition of His-tagged human CHK1 expressed in Escherichia coli at 10 uM

[21] = target: T9, Glycogen synthase kinase-3 beta (Homo sapiens, UniProt P49841); details: Sf21, at 10 µM
T9 sequence (P49841 whole entry, looked up): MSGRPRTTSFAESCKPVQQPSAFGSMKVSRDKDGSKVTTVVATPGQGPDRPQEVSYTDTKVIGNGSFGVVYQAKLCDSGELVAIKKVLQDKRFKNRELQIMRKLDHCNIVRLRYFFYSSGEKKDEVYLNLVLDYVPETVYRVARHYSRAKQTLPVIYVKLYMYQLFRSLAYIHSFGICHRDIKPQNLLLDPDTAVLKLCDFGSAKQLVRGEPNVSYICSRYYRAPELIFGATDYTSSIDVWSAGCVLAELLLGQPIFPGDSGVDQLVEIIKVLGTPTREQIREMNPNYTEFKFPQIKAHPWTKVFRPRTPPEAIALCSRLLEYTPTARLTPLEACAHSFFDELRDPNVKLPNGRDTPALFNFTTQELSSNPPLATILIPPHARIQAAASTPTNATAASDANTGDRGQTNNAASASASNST
Description: Inhibition of His-tagged human GSK3b expressed in Sf21 cells at 10 uM

Oryctolagus cuniculus [22] = organism: Oryctolagus cuniculus; details: Muscle tissue, at 10 µM; remark: listed apart in the source
Description: Inhibition of PHK from rabbit skeletal muscle at 10 uM

[23] = Inhibition of His-tagged human CAMK2 expressed in Escherichia coli
[24] = target: Mitogen-activated protein kinase 8 (Homo sapiens) (UniProt P45983); assay: Inhibition of His-tagged human JNK1a1/SAPK1c expressed in Escherichia coli at 50 uM; values are per cent of control
[25] = target: T7, Mitogen-activated protein kinase 13 (Homo sapiens); assay: Inhibition of His-tagged human SAPK4/p38delta expressed in Escherichia coli at 50 uM; values are per cent of control
Bos taurus [26] = organism: Bos taurus; assay: Inhibition of bovine heart PKA at 50 uM; values are per cent of control
[27] = target: Phosphatidylinositol 4,5-bisphosphate 3-kinase catalytic subunit alpha isoform (Bos taurus) (UniProt P32871); details: Sf9, 50 uM
Description: Inhibition of His-tagged bovine PI3K expressed in Sf9 cells at 50 uM

[28] = target: T5, Ribosomal protein S6 kinase beta-1; assay: Inhibition of His-tagged human S6K1 expressed in Escherichia coli at 50 uM; values are per cent of control
[29] = target: T4, Serine/threonine-protein kinase Sgk1 (Homo sapiens); assay: Inhibition of His-tagged human SGK expressed in Sf9 cells at 50 uM; values are per cent of control
[30] = target: T1, Ribosomal protein S6 kinase alpha-5; assay: Inhibition of His-tagged human MSK1 expressed in Sf9 cells at 50 uM; values are per cent of control
[31] = target: T6, MAP kinase-activated protein kinase 2; assay: Inhibition of His-tagged human MAPKAPK2 expressed in Escherichia coli at 50 uM; values are per cent of control
[32] = target: Rho-associated protein kinase 2 (Rattus norvegicus) (UniProt Q62868); assay: Inhibition of rat ROCK2 expressed in Sf9 cells at 50 uM; details: values are per cent of control
[33] = target: Mitogen-activated protein kinase 11 (Homo sapiens) (UniProt Q15759); assay: Inhibition of His-tagged human SAPK2b/p38b2 expressed in Escherichia coli at 50 uM; values are per cent of control
Rattus norvegicus [34] = organism: Rattus norvegicus; assay: Inhibition of rat liver AMPK at 50 uM; values are per cent of control
[35] = target: Protein kinase C alpha type (Homo sapiens, UniProt P17252); assay: Inhibition of His-tagged human PKCalpha expressed in Escherichia coli at 50 uM; values are per cent of control
[36] = target: T8, Serine/threonine-protein kinase Chk1 (Homo sapiens); assay: Inhibition of His-tagged human CHK1 expressed in Escherichia coli at 50 uM; values are per cent of control
[37] = target: T2, MAP kinase-activated protein kinase 5 (Homo sapiens); assay: Inhibition of His-tagged human PRAK expressed in Sf9 cells at 50 uM; values are per cent of control
Casein kinase II = Casein kinase II (Homo sapiens, UniProt P19784+P67870+P68400); assay: Inhibition of His-tagged human CK2 expressed in Sf9 cells
[38] = target: [Pyruvate dehydrogenase (acetyl-transferring)] kinase isozyme 1, mitochondrial (Homo sapiens) (UniProt Q15118); assay: Inhibition of His-tagged human PDK1 expressed in Sf21 cells at 50 uM; details: values are per cent of control
[39] = target: RAC-alpha serine/threonine-protein kinase (Homo sapiens) (UniProt P31749); assay: Inhibition of human PKBalpha expressed in SF9 cells at 50 uM; values are per cent of control
[40] = target: T3, Casein kinase II (Homo sapiens); assay: Inhibition of His-tagged human CK2 expressed in Sf9 cells at 50 uM; values are per cent of control
Oryctolagus cuniculus [41] = organism: Oryctolagus cuniculus; assay: Inhibition of PHK from rabbit skeletal muscle at 50 uM; values are per cent of control; details: Muscle tissue
Oryctolagus cuniculus [42] = organism: Oryctolagus cuniculus; assay: Inhibition of MAPKAPK1b from rabbit skeletal muscle at 50 uM; values are per cent of control; details: Muscle tissue
Oryctolagus cuniculus [43] = organism: Oryctolagus cuniculus; assay: Inhibition of rabbit MKK1 expressed in Escherichia coli at 50 uM; values are per cent of control
[44] = target: T9, Glycogen synthase kinase-3 beta; assay: Inhibition of His-tagged human GSK3b expressed in Sf21 cells at 50 uM; values are per cent of control
[45] = target: Mitogen-activated protein kinase 1 (Homo sapiens) (UniProt P28482); assay: Inhibition of His-tagged human MAPK2/ERK2 expressed in Escherichia coli at 50 uM; values are per cent of control

T1 sequence (O75582 whole entry, looked up): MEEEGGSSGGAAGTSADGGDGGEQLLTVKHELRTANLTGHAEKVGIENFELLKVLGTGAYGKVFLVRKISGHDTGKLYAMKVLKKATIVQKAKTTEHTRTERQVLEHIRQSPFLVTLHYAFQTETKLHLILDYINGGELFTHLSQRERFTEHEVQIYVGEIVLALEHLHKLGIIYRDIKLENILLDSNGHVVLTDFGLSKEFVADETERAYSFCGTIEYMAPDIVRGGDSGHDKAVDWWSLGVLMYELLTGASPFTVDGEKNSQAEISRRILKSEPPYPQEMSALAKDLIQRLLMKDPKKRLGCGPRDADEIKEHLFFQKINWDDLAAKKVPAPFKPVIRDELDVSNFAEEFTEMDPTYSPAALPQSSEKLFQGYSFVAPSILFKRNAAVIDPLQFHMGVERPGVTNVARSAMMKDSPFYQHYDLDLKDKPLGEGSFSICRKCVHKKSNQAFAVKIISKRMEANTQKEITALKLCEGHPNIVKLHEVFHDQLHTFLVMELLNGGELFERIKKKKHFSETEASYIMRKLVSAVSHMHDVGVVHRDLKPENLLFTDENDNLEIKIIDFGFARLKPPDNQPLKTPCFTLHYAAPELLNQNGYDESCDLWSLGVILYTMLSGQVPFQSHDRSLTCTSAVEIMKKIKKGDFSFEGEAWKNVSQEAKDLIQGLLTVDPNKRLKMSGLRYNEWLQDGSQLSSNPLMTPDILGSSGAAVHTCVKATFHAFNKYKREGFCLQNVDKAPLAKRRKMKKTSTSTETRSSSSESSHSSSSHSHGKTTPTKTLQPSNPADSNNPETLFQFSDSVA

Compound: CN([C@@H](Cc1ccc(OS(=O)(=O)c2cccc3cnccc23)cc1)C(=O)N1CCN(c2ccccc2)CC1)S(=O)(=O)c1cccc2cnccc12
- residual activity [1]: 81%
- residual activity [2]: 92%
- inhibition (Homo sapiens): 0%
- level, % of control (Oryctolagus cuniculus [3]): 89%
- residual activity [4]: 36%
- inhibition [5]: 96%
- residual activity [6]: 104%
- residual activity [7]: 103%
- residual activity (Rattus norvegicus [8]): 97%
- residual activity [9]: 88%
- residual activity [10]: 70%
- residual activity [11]: 78%
- residual activity [12]: 93%
- residual activity [13]: 98%
- residual activity [14]: 59%
- residual activity [15]: 92%
- residual activity [16]: 67%
- residual activity (Oryctolagus cuniculus [17]): 101%
- residual activity [18]: 110%
- residual activity (Bos taurus [19]): 94%
- residual activity [20]: 104%
- residual activity [21]: 38%
- level, % of control (Oryctolagus cuniculus [22]): 106%
- IC50 [23]: 0.5 µM

Compound: O=c1cc(N2CCOCC2)oc2c(-c3ccccc3)cccc12 [LY-294002]
- residual activity [24]: 108%
- residual activity [25]: 94%
- residual activity (Bos taurus [26]): 91%
- residual activity [27]: 13%
- residual activity [28]: 81%
- residual activity [29]: 72%
- residual activity [30]: 83%
- residual activity [31]: 74%
- residual activity [32]: 104%
- residual activity [33]: 98%
- residual activity (Rattus norvegicus [34]): 103%
- residual activity [35]: 91%
- residual activity [36]: 90%
- residual activity [37]: 68%
- IC50 (Casein kinase II): 6.9 µM
- residual activity [38]: 76%
- residual activity [39]: 60%
- residual activity [40]: 18%
- level, % of control (Oryctolagus cuniculus [41]): 44%
- level, % of control (Oryctolagus cuniculus [42]): 70%
- residual activity (Oryctolagus cuniculus [43]): 101%
- residual activity [44]: 53%
- residual activity [45]: 114%

Source: ChEMBL document CHEMBL1240295, “Specificity and mechanism of action of some commonly used protein kinase inhibitors” (Biochem J, 2000)
